Test results as given in US20160168126A1, “CHEMICAL COMPOUNDS” (SYNGENTA LIMITED, priority 2013, published 2016).

Test system: a variety of test species
Assay: Post-emergence herbicidal activity (glasshouse, sprayed 8 days after sowing, evaluated after 13 days)
Assay type: in vivo
Settings: scale 0-5
In short: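 Visual herbicidal injury (0 = no damage, 5 = plant killed) recorded 13 days post-treatment. Treatment consisted of a single spray onto emerged seedlings at day 8; conditions before and after were 24/16 °C, 14 h light, 65% humidity.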

Structure (SMILES) | Post-emergence herbicidal damage score, ABUTH (Abutilon theophrasti) (1000 g/ha) | Post-emergence herbicidal damage score, ALOMY (Alopecurus myosuroides) (1000 g/ha) | Post-emergence herbicidal damage score, AMARE (Amaranthus retroflexus) (1000 g/ha) | Post-emergence herbicidal damage score, ECHCG (Echinochloa crus-galli) (1000 g/ha) | Post-emergence herbicidal damage score, SETFA (Setaria faberi) (1000 g/ha) | Post-emergence herbicidal damage score, ZEAMX (Zea mays) (1000 g/ha) | Post-emergence herbicidal damage score, ABUTH (Abutilon theophrasti) (250 g/ha) | Post-emergence herbicidal damage score, ALOMY (Alopecurus myosuroides) (250 g/ha) | Post-emergence herbicidal damage score, AMARE (Amaranthus retroflexus) (250 g/ha) | Post-emergence herbicidal damage score, ECHCG (Echinochloa crus-galli) (250 g/ha) | Post-emergence herbicidal damage score, SETFA (Setaria faberi) (250 g/ha) | Post-emergence herbicidal damage score, ZEAMX (Zea mays) (250 g/ha)
COC1=C(Cl)C(OC(C)=O)N(c2cc(C(C)(C)C)n(C)n2)C1=O (stereo not drawn) [Compound F3, [1-(5-tert-butyl-1-methyl-pyrazol-3-yl)-3-chloro-4-methoxy-5-oxo-2H-pyrrol-2-yl] acetate] | 5 | 5 | 5 | 5 | 5 | 3 |  |  |  |  |  | 
CC1=C(Cl)C(O)N(c2cc3n(n2)CCC3(C)C)C1=O (stereo not drawn) [Compound G2] |  |  |  |  |  |  | 5 | 5 | 5 | 5 | 5 | 4
CC1=C(Cl)C(O)N(c2cc3n(n2)CCCC3(C)C)C1=O (stereo not drawn) [Compound G4] | 5 | 5 | 5 | 5 | 5 | 2 |  |  |  |  |  | 
CC1=C(Cl)C(O)N(c2cc3n(n2)CCSC3(C)C)C1=O (stereo not drawn) [Compound G6] | 5 | 4 | 5 | 4 | 4 | 0 |  |  |  |  |  | 
CC1=C(Br)C(O)N(c2cc(C(C)(C)C)n(C)n2)C1=O (stereo not drawn) [Compound H1] | 5 | 4 | 5 | 5 | 3 | 1 |  |  |  |  |  | 
CC1=C(Br)C(O)N(c2cc(C(C)(C)C)[nH]n2)C1=O (stereo not drawn) [Compound H2] | 5 | 3 | 5 | 2 | 4 | 2 |  |  |  |  |  | 
CC(C)=CCc1cc(N2C(=O)C(C)=C(Br)C2O)nn1C (stereo not drawn) [Compound H3] | 0 | 0 | 0 | 0 | 0 | 0 |  |  |  |  |  | 
CC1=C(Br)C(O)N(c2cc(C(F)(F)F)n(C)n2)C1=O (stereo not drawn) [Compound H4] | 5 | 5 | 5 | 2 | 1 | 0 |  |  |  |  |  | 
CC1=C(Br)C(O)N(c2nn(C)c(C(C)(C)C)c2C#N)C1=O (stereo not drawn) [Compound H5] | 2 | 1 | 2 | 1 | 1 | 0 |  |  |  |  |  | 
CCC1=C(Br)C(O)N(c2nn(C)c(C(C)(C)C)c2C#N)C1=O (stereo not drawn) [Compound H6] | 1 | 2 | 2 | 1 | 2 | 0 |  |  |  |  |  | 
CC1=C(Br)C(O)N(c2cc3n(n2)CCC3(C)C)C1=O (stereo not drawn) [Compound H7] | 5 | 5 | 4 | 3 | 4 | 1 |  |  |  |  |  | 
CC1=C(Br)C(O)N(c2cc3n(n2)CCCC3(C)C)C1=O (stereo not drawn) [Compound H8] | 5 | 5 | 5 | 4 | 4 | 0 |  |  |  |  |  | 
CC1=C(Br)C(O)N(c2cc3n(n2)CCSC3(C)C)C1=O (stereo not drawn) [Compound H9] | 4 | 5 | 4 | 3 | 3 | 0 |  |  |  |  |  | 
CC1=C(Br)C(O)N(c2nn(C)c3c2CCC3(C)C)C1=O (stereo not drawn) [Compound H10] | 5 | 5 | 5 | 4 | 5 | 3 |  |  |  |  |  | 
COC1=C(C)C(=O)N(c2cc(C(C)(C)C)[nH]n2)C1O (stereo not drawn) [Compound I1] |  |  |  |  |  |  | 5 | 3 | 5 | 3 | 5 | 1
